Test results: PubChem BioAssay (NCI)
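Compound exposure: 48 hours, 5 concentrations, 96-well plates. TGI: total growth inhibition.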 Where a SMILES comes first, the peptide text is derived from it. The star is where a group is joined. Cbz = O=C(OCc1ccccc1)*

Experiments:
Experiment in all cases: DTP human tumour cell line panel, 48 h
A498 renal = system: A498 renal
EKVX NSCLC = system: EKVX NSCLC
DLD-1 colon = system: DLD-1 colon
DMS 114 small cell lung = system: DMS 114 small cell lung
DMS 273 small cell lung = system: DMS 273 small cell lung
HOP-18 NSCLC = system: HOP-18 NSCLC
KM20L2 colon = system: KM20L2 colon
LXFL 529 NSCLC = system: LXFL 529 NSCLC
M19-MEL melanoma = system: M19-MEL melanoma
SNB-78 CNS = system: SNB-78 CNS
XF 498 CNS = system: XF 498 CNS
RXF-631 renal = system: RXF-631 renal

SMILES	TGI (A498 renal) [µM]	TGI (EKVX NSCLC) [µM]	further results
C[C@@H]1OC(=O)C[C@H]2CC(=O)N(CCc3cn(S(=O)(=O)C(F)(F)F)c4ccccc34)C[C@@H]21	> 100	> 100	
CC(C)(C)/C(O)=C\c1nc2cc(C(F)(F)F)ccc2[nH]c1=O	> 100	> 100	
COc1cc(CC2c3cc(OC)c(OC)cc3CCN2C)c(Oc2cc3c(cc2OC)-c2c(OC)c(OC)c(OC)c4c2C(C3)N(C)CC4)cc1OC (stereo not given)	28.8	31.1	TGI (DLD-1 colon): 29.8 µM; TGI (DMS 114 small cell lung): 26 µM; TGI (DMS 273 small cell lung): 26.2 µM; TGI (HOP-18 NSCLC): 31.1 µM; TGI (KM20L2 colon): 17.8 µM; TGI (LXFL 529 NSCLC): 27.1 µM; TGI (M19-MEL melanoma): 28.6 µM; TGI (SNB-78 CNS): 34.5 µM; TGI (XF 498 CNS): 26.6 µM
CC(=O)c1cn(-c2ccc(Cl)cc2)c(=O)c2c(N)n[nH]c12	> 100	> 100	
O=C1OC(CN2CCN(c3ccccc3)CC2)CN1C(=S)Nc1ccccc1 (stereo not given)	> 100	> 100	
CC(C)(C)OC(=O)NC(Cc1ccc([N+](=O)[O-])cc1)C(=O)NC(CCCCNC(=O)OCc1ccccc1)C(=O)ON1C(=O)CCC1=O (stereo not given)	> 100	> 100	
CC(C)[Si](OC1=CCCCCC12C(=O)N(C)c1ccccc12)(C(C)C)C(C)C (stereo not given)	42.8	38.6	
CC1OC(=O)c2ccccc2NC1=O (stereo not given)	> 100	> 100	
Cc1n[nH]c(=O)n1N=C(c1ccccc1)c1ccccc1	> 100	> 100	
CC(=O)OC[C@@]12C[C@H]3C(=O)C(C)(C)C[C@H]3[C@]1(C)[C@@H](OC(C)=O)[C@]1(O)[C@H]([C@@H](OC(=O)c3ccccc3)[C@@H](C)[C@H]1OC(C)=O)[C@H]2OC(C)=O	> 20	> 20	
CN1CCN(c2ccc3[nH]c(C4=C(O)c5nc(CO)n(C)c5C(=O)C4=O)nc3n2)CC1		> 100	
C=C1C(=O)OC2/C=C(\C)C(O)/C=C\C(C)(O)CC(OC(=O)/C(C)=C/C)C12 (stereo not given)	> 100	77.9	TGI (DLD-1 colon): 28.3 µM; TGI (DMS 114 small cell lung): > 78.2 µM; TGI (DMS 273 small cell lung): 37.3 µM; TGI (HOP-18 NSCLC): > 100 µM; TGI (KM20L2 colon): > 38.5 µM; TGI (LXFL 529 NSCLC): 29.1 µM; TGI (M19-MEL melanoma): 37 µM; TGI (RXF-631 renal): > 100 µM; TGI (SNB-78 CNS): > 100 µM; TGI (XF 498 CNS): > 58.4 µM
COc1ccc(C)cc1NC(=S)N/N=C/c1ccc(SC)cc1	> 100		
CCOC(=O)c1nc2cc(C(F)(F)F)ccc2nc1Nc1ccc(Cl)c(Cl)c1	> 100	> 100	
O=C(O)CCC1(c2ccccc2)NC(=O)NC1=O (stereo not given)	> 100	> 100	
Cc1nc(-c2nc([N+](=O)[O-])c([N+](=O)[O-])[nH]2)cs1	> 100	> 100	TGI (DLD-1 colon): > 100 µM; TGI (DMS 114 small cell lung): > 100 µM; TGI (DMS 273 small cell lung): > 100 µM; TGI (KM20L2 colon): > 100 µM; TGI (LXFL 529 NSCLC): > 100 µM; TGI (M19-MEL melanoma): > 100 µM; TGI (RXF-631 renal): > 100 µM; TGI (SNB-78 CNS): > 100 µM; TGI (XF 498 CNS): > 100 µM
CC(Cc1ccc(O)c(O)c1)C(C)Cc1ccc(O)c(O)c1 (stereo not given)	90.1	58.8	
CSC(=NCCN=C(NS(=O)(=O)c1ccc(Cl)cc1)SC)NS(=O)(=O)c1ccc(Cl)cc1	> 100	> 100	
CN1C[C@@H]2CCCN2P1Oc1cccc2cccnc12 (stereo not given in full)	> 100	90.6	
N#Cc1c(C#N)c(SSc2c(C#N)c(C#N)c(N)n2-c2ccccc2)n(-c2ccccc2)c1N	44.1	59.5	
N#Cc1c(NC(=S)NCc2ccccc2)sc2c1CCN(N1CCc3c(sc(NC(=S)NCc4ccccc4)c3C#N)C1)C2	> 100	> 100	
C=C(Cl)C(Cl)(CBr)CCC(Cl)C(C)(C)Cl (stereo not given)	4.04	20.9	
O=C(O)c1ccccc1/C=N\NC1=NCCN1	> 100	> 100	

SMILES	TGI (A498 renal) [µM]	TGI (EKVX NSCLC) [µM]	further results
COC(=O)C1=C(O)C(C(=O)OC)[C@]2(O)[C@H](C(=O)OC)[C@H]1C[C@@H](c1ccc(OC)cc1)[C@H]2C(=O)OC (stereo not given in full)	34.9	> 100	
Cn1c(=O)n(CC(Br)CBr)c(=O)n(CC(Br)CBr)c1=O (stereo not given)	> 100	88.7	
NC(CCCCNc1ccn(C2OC(CO)C(O)C2O)c(=O)n1)C(=O)O (stereo not given)	> 100	> 100	
CC1(C)CCc2c(c(N=Nc3ccccc3)c3ccccc3c2O)O1	44.1	59.5	
Cc1ccc(/C=N/Nc2ncccn2)s1		> 100	
Cc1nc2c(-c3ccccc3)[nH]c(C)c2c(=O)o1	> 100	> 100	
S=C1C=C(c2ccccc2)Sc2ccccc2N1		> 100	
COc1ccc2c(c1)c1cc(OC)ccc1n2CCCCOc1ccc(-c2c3ccccc3c(-c3ccc(OCCCCn4c5ccc(OC)cc5c5cc(OC)ccc54)cc3)c3ccccc23)cc1		> 100	TGI (DLD-1 colon): > 100 µM; TGI (DMS 114 small cell lung): > 100 µM; TGI (DMS 273 small cell lung): > 100 µM; TGI (KM20L2 colon): > 100 µM; TGI (M19-MEL melanoma): > 100 µM; TGI (XF 498 CNS): > 100 µM
O=C(NC(Nc1ccc(F)c(Cl)c1)(C(F)(F)F)C(F)(F)F)C(C(F)(F)F)C(F)(F)F	> 100	> 100	
CC(C)[Si]1(C(C)C)OCC2OC(n3ccc(=O)[nH]c3=O)C(O)(CO)C2O[Si](C(C)C)(C(C)C)O1 (stereo not given)	36.1	27.4	
Clc1nc2c(-c3cccs3)ncnc2n1Cc1ccccc1	55.6	55.4	
CCCc1c2c3ccccc3nc-2nc2ccccn12	> 100	> 100	
COC/C=C\[C@@]1(O)CCCC[C@@H]1CC(OC)OC		> 100	
Fc1ccc(C(OCCN2CCC3CCC(C2)N3Cc2cc3ccccc3[nH]2)c2ccc(F)cc2)cc1 (stereo not given)	2.99	3.73	
COc1nc(=O)n(C2CC(N=[N+]=[N-])C(CO)O2)cc1C (stereo not given)		> 100	
CCC(=O)NCCc1c[nH]c2ccc(OC)cc12	> 100	> 100	
CC12ON=C(c3ccccc3)N1C=CN1C(c3ccccc3)=NOC12 (stereo not given)		> 100	
CCOC(=O)c1c(SCCO)n(-c2ccccc2)c(=S)n(-c2ccccc2)c1=O		> 100	
COC(=O)C1=C(C)NC(C)=C([N+](=O)[O-])C1c1cccc(NO)c1 (stereo not given)	70	> 61.5	
CCOC(=O)C(C)NC(=O)C(C)NC(=O)C(C)NC(=O)C(C)NC(=O)C(C)NC(=O)C(C)NC(=O)C(C)NC(=O)OCc1ccccc1 (stereo not given) (Cbz-AAAAAAA-OEt; configuration not given here)	> 100	> 100	
Nc1c(C(=O)c2ccccc2)[nH]c(NCc2ccccc2)c1C(=S)Nc1ccccc1	> 100	> 100	
COCN1C(=O)[C@@H]2CCCN2C(=O)c2cc([N+](=O)[O-])ccc21	> 100	> 100	
